# Source: ChEMBL document CHEMBL5331124, “Degradation of Hexokinase 2 Blocks Glycolysis and Induces GSDME-Dependent Pyroptosis to Amplify Immunogenic Cell Death for Breast Cancer Therapy” (J Med Chem, 2023)
# Activity calls are given as the source filed them. The rule behind the calls is not given here.
# Experiments:
# [1] = biological target: T1, Hexokinase-2 (Mus musculus, UniProt O08528); experiment: (§1) Induction of HK2 degradation in mouse 4T1 cells measured for 36 hrs; format: cell-based
# T1 sequence (O08528 whole entry): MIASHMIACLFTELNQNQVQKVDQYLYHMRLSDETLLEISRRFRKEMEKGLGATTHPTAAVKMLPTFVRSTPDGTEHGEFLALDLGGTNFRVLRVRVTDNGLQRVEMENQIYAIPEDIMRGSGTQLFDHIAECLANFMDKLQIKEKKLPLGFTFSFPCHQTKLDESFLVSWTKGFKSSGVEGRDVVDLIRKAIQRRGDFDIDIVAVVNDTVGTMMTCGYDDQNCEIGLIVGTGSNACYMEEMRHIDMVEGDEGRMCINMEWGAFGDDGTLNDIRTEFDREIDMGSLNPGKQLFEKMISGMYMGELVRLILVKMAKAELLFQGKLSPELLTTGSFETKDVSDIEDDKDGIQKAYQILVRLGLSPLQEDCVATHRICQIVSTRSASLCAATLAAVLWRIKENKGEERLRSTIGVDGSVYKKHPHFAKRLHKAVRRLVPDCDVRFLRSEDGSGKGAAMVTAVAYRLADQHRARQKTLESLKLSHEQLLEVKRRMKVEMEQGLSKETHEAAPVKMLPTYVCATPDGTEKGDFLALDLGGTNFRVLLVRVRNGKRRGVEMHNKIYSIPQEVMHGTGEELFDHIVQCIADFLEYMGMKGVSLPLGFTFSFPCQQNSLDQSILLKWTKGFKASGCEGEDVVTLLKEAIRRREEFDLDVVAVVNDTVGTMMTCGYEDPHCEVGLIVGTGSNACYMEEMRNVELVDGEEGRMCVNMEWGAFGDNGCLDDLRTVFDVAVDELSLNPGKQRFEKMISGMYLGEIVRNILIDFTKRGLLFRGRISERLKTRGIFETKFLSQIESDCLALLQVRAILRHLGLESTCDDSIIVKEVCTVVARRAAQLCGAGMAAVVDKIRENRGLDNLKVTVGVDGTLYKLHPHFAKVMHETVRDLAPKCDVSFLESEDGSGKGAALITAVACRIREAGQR
# [2] = biological target: T2, Hexokinase-2 (Mus musculus) (UniProt O08528); experiment: as §1; format: cell-based
# T2 sequence (whole entry): T1 sequence (O08528 whole entry)
# [3] = test system: 4T1; experiment: Antitumor immunity against mouse 4T1 cells implanted in BALB/c mouse model assessed as accumulation of CRT at 20 uM measured for 36 hrs by ELISA analysis; format: functional, cell-based
# [4] = test system: 4T1; experiment: Antiproliferative activity against mouse 4T1 cells assessed as cell growth inhibition measured for 72 hrs by MTT assay; format: functional, cell-based; conditions: 4T1, 72 h
# [5] = test system: 4T1; experiment: Antitumor immunity against mouse 4T1 cells implanted in BALB/c mouse model assessed as increase in cleaved caspase-3 expression in tumor; format: functional, cell-based
# [6] = test system: 4T1; experiment: Induction of pyroptosis in mouse 4T1 cells assessed as late apoptotic cells at 20 uM incubated for 36 hrs by annexin V-FITC staining based flow cytometry analysis (Rvb =13.6 %); format: functional
# [7] = test system: 4T1; experiment: Antitumor immunity against mouse 4T1 cells implanted in BALB/c mouse model assessed as increase in CRT accumulation in tumor; format: functional, cell-based
# [8] = Toxicity in BALB/c mouse implanted with mouse 4T1 cells assessed as colon damage at 50 mg/kg, ip measured after 25 days in presence of cisplatin by H and E staining based analysis; format: organism-based; conditions: in vivo, 600 h, time 25 day
# [9] = test system: 786-0; experiment: Antiproliferative activity against human 786-0 cells assessed as cell growth inhibition measured for 72 hrs by MTT assay; format: functional, cell-based; conditions: 786-0, 72 h
# [10] = Toxicity in BALB/c mouse implanted with mouse 4T1 cells assessed as effect on hemoglobin level at 50 mg/kg, ip measured after 25 days by routine blood test; format: organism-based; conditions: in vivo, 600 h, time 25 day
# [11] = test system: 4T1; experiment: Induction of mitochondrial damage in mouse 4T1 cells assessed as reduction in LDH level at 20 uM measured for 36 hrs; format: functional, cell-based
# [12] = Toxicity in BALB/c mouse implanted with mouse 4T1 cells assessed as change in corpuscular hemoglobin concentration at 50 mg/kg, ip measured after 25 days by routine blood test; format: organism-based; conditions: in vivo, 600 h, time 25 day
# [13] = test system: 4T1; experiment: Induction of mitochondrial damage in mouse 4T1 cells assessed as increase in ROS generation at 20 uM measured for 36 hrs by Hoechst 33342 staining based confocal fluorescence microscopic analysis; format: functional, cell-based
# [14] = test system: 4T1; experiment: Antitumor immunity activity against mouse 4T1 cells implanted in BALB/c mouse assessed as increase in proportion of cytotoxic CD8 positive T cells in tumor by flow cytometry analysis; format: functional, cell-based
# [15] = biological target: T2, Hexokinase-2 (Mus musculus); experiment: Induction of HK2 degradation in mouse 4T1 cells measured for 36 hrs by confocal microscopic analysis; format: cell-based; conditions: dose 2.0 µM
# [16] = test system: MDA-MB-231; experiment: Antitumor activity against human MDA-MB-231 cells xenografted in BALB/c nude mouse assessed as reduction in HK2 expression level at 50 mg/kg, ip measured after 28 days; format: functional, organism-based; conditions: time 28.0 day
# [17] = test system: MDA-MB-231; experiment: Antitumor immunity against human MDA-MB-231 cells xenografted in BALB/c nude mouse at 50 mg/kg, ip measured after 28 days; format: functional, organism-based; conditions: time 28.0 day
# [18] = test system: 4T1; experiment: Antitumor activity against mouse 4T1 cells implanted in BALB/c mouse model assessed as reduction tumor cell proliferation at 50 mg/kg, ip measured after 25 days by H and E staining based analysis; format: functional, organism-based; conditions: time 25.0 day
# [19] = Toxicity in BALB/c mouse implanted with mouse 4T1 cells assessed as pathological changes in liver at 50 mg/kg, ip measured after 25 days by Hematoxylin -eosin staining based analysis; format: organism-based; conditions: in vivo, 600 h, time 25 day
# [20] = test system: 4T1; experiment: Induction of mitochondrial damage in mouse 4T1 cells assessed as reduction in lactic acid production at 20 uM measured for 36 hrs; format: functional, cell-based
compound,measurement,setting,value
O=C1CCC(N2C(=O)c3cccc(NCCCCNC(=O)c4nn(Cc5ccc(Cl)cc5Cl)c5ccccc45)c3C2=O)C(=O)N1 (stereo not given),DC50,[1],2.56 µM
same,Activity,[2],Dose-Dependent Effect
same,Activity,[3],Active
same,IC50,[4],5.08 µM
same,Activity,[5],Active
same,Activity,[6],43%
same,Activity,[7],Active
same,Activity,[8],Non-Toxic
same,IC50,[9],34.1 µM
same,Activity,[10],Non-Toxic
same,Activity,[11],Active
same,Activity,[12],Non-Toxic
same,Activity,[13],Active
same,Activity,[14],Active
same,Activity,[15],Dose-Dependent Effect
same,Activity,[16],Active
same,Activity,[17],inactive
same,Activity,[18],Active
same,Activity,[19],Non-Toxic
same,Activity,[20],Active
